Data on 41 molecules can be found in patent US12351580B2, “NLRP3 modulators” (Innate Tumor Immunity, Inc., priority 2017, dated 2025).

The structures appear in SMILES notation. pEC50: −log10 of the molar value.

The target in the assay is T1, hNLRP3 (Homo sapiens, UniProt Q96P20).
T1 construct: THP-1 cells were purchased from the American Type Culture Collection; host or cells: THP-1 cells, PMA-differentiated
Kind of assay: Measurement of IL-1β production in PMA-differentiated THP-1 cells (hNLRP3 agonist; ELISA, alternative and hTRF procedures). Type of assay: cell-based. On the procedure: Measurement of IL-1β production in PMA-differentiated THP-1 cells THP-1 cells were purchased from the American Type Culture Collection and sub-cultured according to instructions from the supplier. Prior to experiments, cells were cultured in RPMI 1640 containing 10% heat inactivated FBS, penicillin (100 units/ml) and streptomycin (100 μg/ml), and maintained in log phase prior to experimental setup. Prior to the experiment THP-1 were treated with PMA (Phorbol 12-myristate 13-acetate) ([…]) for 24 hours. The day of the experiment the media was removed and attaching cells were treated with trypsin for 2 minutes, cells were then collected, washed with PBS (phosphate buffer saline), spin down, resuspended in 2% heat inactivated FBS with RPMI at a concentration of 1×10^6 cells/ml, and 100 μl was plated in a 96 well plate. Compounds were dissolved in dimethyl sulfoxide (DMSO) and added to the culture medium to achieve desired concentration (e.g. 100, 30, 10, 3, 1, 0.3 or 0.1 μM). Cells were incubated with compounds for 4 hours. Cell free supernatant was collected and the production of […] was evaluated by ELISA. A vehicle only control was run concurrently with each experiment. Final DMSO concentration was 1%.
Measurement of IL-1β Production in PMA-Differentiated THP-1 Cells (Alternative Procedure)
THP-1 cells were purchased from the American Type Culture Collection and sub-cultured according to instructions from the supplier. Prior to experiments, cells were cultured in RPMI 1640 containing 10% heat inactivated FBS, penicillin (100 units/ml), streptomycin (100 μg/ml), HEPES (10 mM) and sodium pyruvate (1 mM) and maintained in log phase prior to experimental setup. Prior to the experiment, THP-1 cells were treated with PMA (Phorbol 12-myristate 13-acetate) (20 μg/ml) overnight. The day of the experiment, the media was removed and attached cells were treated with trypsin for 2 minutes, cells were then collected, washed with PBS (phosphate buffer saline), pelleted by centrifugation and resuspended in 2% heat inactivated FBS with RPMI at a concentration of 50,000 cells/well in a 384 well plate. Cell free supernatant was collected and the production of IL-1β was evaluated by ELISA. Compounds were dissolved in dimethyl sulfoxide (DMSO) and added to the culture medium to achieve desired concentration (e.g. 100, 30, 10, 3, 1, 0.3 or 0.1 μM). Cells were incubated with compounds for 2 hours. A vehicle only control was run concurrently with each experiment. Final DMSO concentration was 1%.
Measurement of IL-1β Production—hTRF Protocol (Second Alternative Procedure)
Serial dilutions of compounds in DMSO were added to low volume 384 well plates at 100 nl/well using an ECHO 550 acoustic dispenser (Labcyte) to achieve final starting concentration of 10 μM in assay.
THP-1 cells in RPMI (Gibco, 11875) media with 10% FBS at a density of 1×10^6 cell/ml in a T175 flask were treated with a final concentration of phorbol 12-myristate 13-acetate (PMA) (Sigma, P1585) of 50 ng/ml overnight at 37° C. at 5% CO2 for differentiation. Cells were harvested the next day after rinsing well with dPBS using 0.5% trypsin. A cell solution was prepared of 1×10^6 cells/ml for 50,000 cells in 50 μl/well in RPMI media with 2% FBS. Cells were plated using a multichannel pipette onto the compound dilutions in Greiner, 384 well, black clear bottom tissue culture treated plates (781090). The plates were incubated in 37° C. incubator at 5% CO2 for 2 hours.
After the 2 hour incubation, the cell plates were spun in the centrifuge for 5 minutes at 1200 rpm. Using the Felix (CyBio), 8 μl of the supernatant was transferred to 384 well, low volume, white proxy plates. (Perkin Elmer, 6008230). A human IL1beta hTRF kit was used to analyze the supernatant (CISBIO, 62HIL1BPEG). The kit instructions were followed for preparing the IL1Beta standard curve and then the antibodies from the kit were diluted 1:40 rather than 1:20 as kit instructed.

T1 sequence (Q96P20 whole entry): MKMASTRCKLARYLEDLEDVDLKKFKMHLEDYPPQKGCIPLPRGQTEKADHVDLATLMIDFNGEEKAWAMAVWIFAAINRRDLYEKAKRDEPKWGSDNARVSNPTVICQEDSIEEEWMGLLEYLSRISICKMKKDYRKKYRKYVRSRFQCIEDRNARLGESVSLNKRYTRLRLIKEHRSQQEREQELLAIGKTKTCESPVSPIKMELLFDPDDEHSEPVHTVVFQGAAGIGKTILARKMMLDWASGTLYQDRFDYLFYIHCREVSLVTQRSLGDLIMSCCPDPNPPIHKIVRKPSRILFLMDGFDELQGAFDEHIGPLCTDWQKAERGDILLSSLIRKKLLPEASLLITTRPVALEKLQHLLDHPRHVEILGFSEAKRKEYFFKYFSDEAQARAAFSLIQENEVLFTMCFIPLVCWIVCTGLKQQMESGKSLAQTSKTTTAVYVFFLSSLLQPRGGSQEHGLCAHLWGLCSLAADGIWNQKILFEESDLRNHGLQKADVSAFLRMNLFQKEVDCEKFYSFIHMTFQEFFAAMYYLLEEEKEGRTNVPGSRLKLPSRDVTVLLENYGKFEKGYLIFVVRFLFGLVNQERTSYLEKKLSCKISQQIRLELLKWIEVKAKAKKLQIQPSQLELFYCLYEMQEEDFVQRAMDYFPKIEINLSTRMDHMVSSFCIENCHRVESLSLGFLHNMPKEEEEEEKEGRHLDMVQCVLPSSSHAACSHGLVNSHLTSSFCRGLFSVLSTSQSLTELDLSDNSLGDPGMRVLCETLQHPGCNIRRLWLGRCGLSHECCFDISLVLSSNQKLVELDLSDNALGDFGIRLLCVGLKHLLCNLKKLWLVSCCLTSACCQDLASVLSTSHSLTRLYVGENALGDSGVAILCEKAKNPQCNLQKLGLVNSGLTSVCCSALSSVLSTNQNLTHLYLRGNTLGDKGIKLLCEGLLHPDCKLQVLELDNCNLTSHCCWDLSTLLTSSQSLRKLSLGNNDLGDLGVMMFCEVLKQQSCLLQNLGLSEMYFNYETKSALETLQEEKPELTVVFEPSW

`Nc1nc2cc(-n3cccn3)ccc2c2[nH]c(CN3CC(c4ccccc4)CC3=O)nc12` (centres unmarked) [Compound 103] showed a pEC50 of 6.28.
`CCN(Cc1nc2c(N)nc3cc(C)ccc3c2[nH]1)C(C)=O` [Compound 104] showed a pEC50 of 6.22.
As to `CCNCc1nc2c(N)nc3cc(-c4cc[nH]n4)ccc3c2n1C` [Compound 106, 2-((Ethylamino)methyl)-1-methyl-7-(1H-pyrazol-3-yl)-1H-imidazo[4,5-c]quinolin-4-amine], the pEC50 is 6.15.
In the case of `CCN(Cc1nc2c(N)nc3cc(-n4cccn4)ccc3c2[nH]1)S(C)(=O)=O` [Compound 108, N-((4-Amino-7-(1H-pyrazol-1-yl)-1H-imidazo[4,5-c]quinolin-2-yl)methyl)-N-ethylmethanesulfonamide], the pEC50 is 6.06.
With `CCN(Cc1nc2c(N)nc3cc(-c4cc[nH]n4)ccc3c2[nH]1)C(=O)OC(C)(C)C` [Compound 109, tert-Butyl ((4-amino-7-(1H-pyrazol-3-yl)-1H-imidazo[4,5-c]quinolin-2-yl)methyl)(ethyl)carbamate], the pEC50 was 6.06.
Molecule `CCN(Cc1nc2c(N)nc3cc(-c4cc[nH]n4)ccc3c2[nH]1)C(=O)N(C)C` [Compound 110, 1-((4-Amino-7-(1H-pyrazol-3-yl)-1H-imidazo[4,5-c]quinolin-2-yl)methyl)-1-ethyl-3,3-dimethylurea] gave a pEC50 of 6.05.
In turn, `Nc1nc2cc(C(F)(F)F)ccc2c2[nH]c(CN3CCCC3=O)nc12` [Compound 163] gave a pEC50 of 4.32.
Molecule `CCN(Cc1nc2c(N)nc3ccccc3c2n1CCCC(=O)OC)C(C)=O` [Compound 164] showed a pEC50 of 5.34.
`CCN(Cc1nc2c(N)nc3cc(-c4ccccc4)ccc3c2[nH]1)C(C)=O` [Compound 165, N-[(4-amino-7-phenyl-1H-imidazo[4,5-c]quinolin-2-yl)methyl]-N-ethylacetamide] showed a pEC50 of 6.72.
`CCN(Cc1nc2c(N)nc3cc(-c4cccnc4)ccc3c2[nH]1)C(C)=O` [Compound 166, N-[(4-amino-7-pyridin-3-yl-1H-imidazo[4,5-c]quinolin-2-yl)methyl]-N-ethylacetamide] showed a pEC50 of 5.47.
Regarding `CCN(Cc1nc2c(N)nc3cc(-c4ccncc4)ccc3c2[nH]1)C(C)=O` [Compound 167, N-[(4-amino-7-pyridin-4-yl-1H-imidazo[4,5-c]quinolin-2-yl)methyl]-N-ethylacetamide], the pEC50 is 4.24.
On to `CCN(Cc1nc2c(N)nc3cc(-c4cc(C)nn4C)ccc3c2[nH]1)C(C)=O` [Compound 168, N-[[4-amino-7-(2,5-dimethylpyrazol-3-yl)-1H-imidazo[4,5-c]quinolin-2-yl]methyl]-N-ethylacetamide], for which the pEC50 was 4.00.
The molecule `CCCn1cc(-c2ccc3c(c2)nc(N)c2nc(CN(CC)C(C)=O)[nH]c23)cn1` [Compound 169, N-[[4-amino-7-(1-propylpyrazol-4-yl)-1H-imidazo[4,5-c]quinolin-2-yl]methyl]-N-ethylacetamide] gave a pEC50 of 4.04.
`CCN(Cc1nc2c(N)nc3cc(C(C)C)ccc3c2[nH]1)C(C)=O` [Compound 170, N-[(4-amino-7-propan-2-yl-1H-imidazo[4,5-c]quinolin-2-yl)methyl]-N-ethylacetamide] gave a pEC50 of 5.10.
`CCc1ccc2c(c1)nc(N)c1nc(CN(CC)C(C)=O)[nH]c12` [Compound 171, N-[(4-amino-7-ethyl-1H-imidazo[4,5-c]quinolin-2-yl)methyl]-N-ethylacetamide] showed a pEC50 of 5.49.
To `CCCc1ccc2c(c1)nc(N)c1nc(CN(CC)C(C)=O)[nH]c12` [Compound 172, N-[(4-amino-7-propyl-1H-imidazo[4,5-c]quinolin-2-yl)methyl]-N-ethylacetamide] belongs 5.68; to `CCN(Cc1nc2c(N)nc3cc(C4CCCC4)ccc3c2[nH]1)C(C)=O` [Compound 173, N-[(4-amino-7-cyclopentyl-1H-imidazo[4,5-c]quinolin-2-yl)methyl]-N-ethylacetamide], 6.08; to `CCN(Cc1nc2c(N)nc3cc(-c4cccnc4F)ccc3c2[nH]1)C(C)=O` [Compound 175, N-[[4-amino-7-(2-fluoropyridin-3-yl)-1H-imidazo[4,5-c]quinolin-2-yl]methyl]-N-ethylacetamide], 5.59.
With `CCN(Cc1nc2c(N)nc3ccccc3c2[nH]1)C(C)=O` [Compound 176], the pEC50 was 4.59.
For the molecule `CCN(Cc1nc2c(N)nc3cc(Br)ccc3c2[nH]1)C(C)=O` [Compound 177], the pEC50 is 5.13.
To `CCN(Cc1nc2c(N)nc3cc(Cl)ccc3c2[nH]1)C(C)=O` [Compound 179, N-[(4-amino-7-chloro-1H-imidazo[4,5-c]quinolin-2-yl)methyl]-N-ethylacetamide] belongs 4.90.
Regarding `CCN(Cc1nc2c(N)nc3cc(-n4cccn4)ccc3c2[nH]1)C(C)=O` [Compound 180, N-[(4-amino-7-pyrazol-1-yl-1H-imidazo[4,5-c]quinolin-2-yl)methyl]-N-ethylacetamide], the pEC50 was 5.82.
Molecule `CCN(Cc1nc2c(N)nc3cc(C4=CCCC4)ccc3c2[nH]1)C(C)=O` [Compound 183] had a pEC50 of 6.28.
For the molecule `CC(=O)N(C)Cc1nc2c(N)nc3ccccc3c2[nH]1` [Compound 187], the negative-log EC50 (pEC50) is 4.19.
`COC(=O)CCCn1c(CN(C)C(C)=O)nc2c(N)nc3ccccc3c21` [Compound 188] showed a pEC50 of 5.24.
Molecule `CCN(Cc1nc2c(N)nc3cc(C4CC4)ccc3c2n1Cc1ccc(OC)cc1)C(C)=O` [Compound 190] gave a pEC50 of 4.99.
To `CCN(Cc1nc2c(N)nc3ccccc3c2n1CCCNC(=O)OC(C)(C)C)C(C)=O` [Compound 191] belongs 4.19.
On to `CCN(Cc1nc2c(N)nc3ccc(Br)cc3c2[nH]1)C(C)=O` [Compound 194], for which the pEC50 was 5.10.
Molecule `CCN(Cc1nc2c(N)nc3cc(N4CCNC4=O)ccc3c2n1Cc1ccc(OC)cc1)C(C)=O` [Compound 196] had a pEC50 of 4.49.
As for `CCN(Cc1nc2c(N)nc3ccc(Cl)cc3c2[nH]1)C(C)=O` [Compound 197], the pEC50 was 4.86.
The molecule `CCOC(=O)c1cc2c(cc1Br)nc(N)c1nc(CN(CC)C(C)=O)[nH]c12` [Compound 198] had a pEC50 of 4.62.
`CCN(Cc1nc2c(N)nc3ccc(Br)cc3c2[nH]1)C(=O)OC` [Compound 200] gave a negative-log EC50 (pEC50) of 4.92.
Regarding `CCN(Cc1nc2c(N)nc3ccc(Br)cc3c2[nH]1)S(C)(=O)=O` [Compound 201], the pEC50 is 4.68.
`CCN(Cc1nc2c(N)nc3ccc(Br)cc3c2[nH]1)S(=O)(=O)c1ccc(C)cc1` [Compound 202]: the negative logarithm of the EC50 (pEC50) was 4.44.
The value for `CCN(Cc1nc2c(N)nc3ccc(Br)cc3c2[nH]1)C(=O)C(C)C` [Compound 203] was 4.97.
Molecule `CCN(Cc1nc2c(N)nc3ccc(Br)cc3c2[nH]1)C(=O)c1ccccc1` [Compound 204] had a pEC50 of 5.17.
To `CCN(Cc1nc2c(N)nc3ccccc3c2n1CCC(=O)N1CCOCC1)C(=O)OC(C)(C)C` [Compound 205] belongs 4.44; to `CCN(Cc1nc2c(N)nc3ccc(-n4cccn4)cc3c2[nH]1)C(C)=O` [Compound 207], 4.14; to `CCN(Cc1nc2c(N)nc3cc(Br)ccc3c2n1CCCC(=O)N1CCN(C)CC1)C(C)=O` [Compound 209], 4.66.
Molecule `CCN(Cc1nc2c(N)nc3cc(Br)ccc3c2n1CCCC(=O)NC)C(C)=O` [Compound 210] gave a pEC50 of 4.21.
`CCN(Cc1nc2c(N)nc3ccccc3c2n1CCC(=O)N1CCN(C(=O)OC(C)(C)C)CC1)C(=O)OC(C)(C)C` [Compound 211] gave a pEC50 of 4.40.
